# The supplement of paper PMC10307832
# What was measured:
# Experiment in all cases: relative viability (nuclei count vs DMSO), 5 days (fraction); higher = more cells survive
# Crenolanib + Linsitinib = compound: CC1(COc2ccc3c(c2)ncn3-c2ccc3cccc(N4CCC(N)CC4)c3n2)COC1 [Crenolanib] + C[C@]1(O)C[C@@H](c2nc(-c3ccc4ccc(-c5ccccc5)nc4c3)c3c(N)nccn32)C1 [Linsitinib] (partner 1 µM)
# In short: (§1)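 Medians of duplicate plates are given as relative viability. That measure is the nuclei count in treated wells divided by the count in vehicle wells. Counts were taken on 4× images of lung cancer cell lines in 1536-well plates, 5 days after pin-tool dosing the day after seeding with one drug alone or a fixed anchor-drug dose plus five library-drug doses (not always all listed) in √10 steps.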
# Crenolanib + Foretinib = compound: CC1(COc2ccc3c(c2)ncn3-c2ccc3cccc(N4CCC(N)CC4)c3n2)COC1 [Crenolanib] + COc1cc2c(Oc3ccc(NC(=O)C4(C(=O)Nc5ccc(F)cc5)CC4)cc3F)ccnc2cc1OCCCN1CCOCC1 [Foretinib] (partner 0.25 µM)
# In short: as §1
# Tivantinib + Pictilisib = compound: O=C1NC(=O)[C@@H](c2cn3c4c(cccc24)CCC3)[C@@H]1c1c[nH]c2ccccc12 [Tivantinib] + CS(=O)(=O)N1CCN(Cc2cc3nc(-c4cccc5[nH]ncc45)nc(N4CCOCC4)c3s2)CC1 [Pictilisib] (partner 1 µM)
# In short: as §1
# Crenolanib + Crizotinib = compound: CC1(COc2ccc3c(c2)ncn3-c2ccc3cccc(N4CCC(N)CC4)c3n2)COC1 [Crenolanib] + C[C@@H](Oc1cc(-c2cnn(C3CCNCC3)c2)cnc1N)c1c(Cl)ccc(F)c1Cl [Crizotinib] (partner 1 µM)
# In short: as §1
Cell Line,relative viability (Crenolanib + Linsitinib; first compound 0.01 µM),relative viability (Crenolanib + Linsitinib; first compound 0.03162 µM),relative viability (Crenolanib + Linsitinib; first compound 0.1 µM),relative viability (Crenolanib + Linsitinib; first compound 0.3162 µM),relative viability (Crenolanib + Linsitinib; first compound 1 µM),relative viability (Crenolanib + Foretinib; first compound 0.01 µM),relative viability (Crenolanib + Foretinib; first compound 0.03162 µM),relative viability (Crenolanib + Foretinib; first compound 0.1 µM),relative viability (Crenolanib + Foretinib; first compound 0.3162 µM),relative viability (Crenolanib + Foretinib; first compound 1 µM),relative viability (Tivantinib + Pictilisib; first compound 0.01 µM),relative viability (Tivantinib + Pictilisib; first compound 0.03162 µM),relative viability (Tivantinib + Pictilisib; first compound 0.1 µM),relative viability (Tivantinib + Pictilisib; first compound 0.3162 µM),relative viability (Crenolanib + Crizotinib; first compound 0.01 µM),relative viability (Crenolanib + Crizotinib; first compound 0.03162 µM),relative viability (Crenolanib + Crizotinib; first compound 0.1 µM),relative viability (Crenolanib + Crizotinib; first compound 0.3162 µM),relative viability (Crenolanib + Crizotinib; first compound 1 µM)
NCI-H441,0.555,0.508,0.46,0.484,0.509,1.13,1.05,0.775,0.951,0.958,0.499,0.451,0.601,0.242,0.684,0.738,0.56,0.772,0.846
PC-14,1.07,0.93,1.03,1.05,0.93,1.01,0.904,0.952,1.06,0.933,0.584,0.718,0.723,0.292,0.902,0.93,0.825,0.966,1.03
HCC-15,0.832,0.919,0.889,0.926,0.861,1.08,1.07,0.989,1.01,0.853,0.705,0.671,0.674,0.799,0.944,0.815,0.847,0.8,0.727
NCI-H2126,0.693,0.717,0.745,0.759,0.788,1.24,1.37,0.985,1.41,1.23,0.51,0.446,0.496,0.478,1.05,1.04,0.978,1.09,1.02
NCI-H2342,–,–,–,–,–,1.01,1.02,1,1.2,0.816,–,–,–,–,–,–,–,–,–
ChaGo-K-1,–,–,–,–,–,0.952,0.942,0.922,0.894,0.84,0.851,0.608,0.757,0.646,1.16,1.17,1.17,1.06,1.09
NCI-H1793,0.811,1.03,0.838,1.14,0.873,0.669,0.895,0.64,0.608,0.689,0.353,0.42,0.437,–,–,–,–,–,–
NCI-H1650,–,–,–,–,–,1.34,1.27,1.2,1.23,0.945,0.561,0.389,0.589,0.605,1.08,0.917,0.916,1.1,0.696
NCI-H1395,1.6,1.11,1,0.898,1.21,1.03,0.97,1.01,1.07,0.936,0.581,0.595,0.571,0.61,–,–,–,–,–
SW 900,–,–,–,–,–,0.69,0.91,0.818,1.15,0.848,–,–,–,–,–,–,–,–,–
NCI-H1792,0.603,0.648,0.554,0.532,0.518,–,–,–,–,–,0.343,0.235,0.288,0.186,1.05,0.958,0.933,1.17,0.943
